Assay results reported in PMC5862576, “Mitochondrial fission as a driver of stemness in tumor cells: mDIVI1 inhibits mitochondrial function, cell migration and cancer stem cell (CSC) signalling” (Oncotarget, 2018).

Key:
Format in all cases: cell-based, Human
TGFβ signalling = experiment: Luciferase reporter assay MCF7-GFP-SMAD(luc); conditions: 50 µM, 2 and 5 days
Method: (§1) The Cignal Lenti reporter assay (luc) was used to monitor the activity of several signalling pathways in MCF7-GFP cells as explained previously. Luciferase Assay System (E1501, Promega) was performed according to manufacturer’s instructions. 1 × 10^4 MCF7 were seeded in black-walled 96 well plates. When cells were attached, drug treatments were added for 18, 48 hours and 5 days. After treatment, Luciferase Assay was performed according to manufacturer’s instructions and light signal was acquired in the Xenogen VivoVision IVIS Lumina. Results were normalized by SRB staining of cells grown in 96-well plates in parallel.
(§2) SRB (S9012, Sigma) measures total biomass by staining cellular proteins. After treatment, cells were fixed in 10% tricloroacetic acid (T9159, Sigma) for 1 hour at 4° C, stained with SRB (S9012, Sigma) for 15 minutes, and washed 3 times with 1% acetic acid (27225, Sigma). The incorporated die was solubilized with 10 mM Tris Base, pH 8.8 (T1503, Sigma). Absorbance was spectrophotometrically measured at 562 nm in a FluoStar Omega plate reader (BMG Labtech). Background measurements were subtracted from all values.

MCF7 cells [1] = experiment: Tumorsphere formation assay, MCF7; conditions: five days, vs vehicle
Method: A single cell suspension was prepared using enzymatic (1× Trypsin-EDTA, T3924, Sigma Aldrich), and manual disaggregation (25 gauge needle). Cells were plated at a density of 5000 cells/well in tumorsphere media (DMEM-F12/B27/EGF (20ng/ml)/Pen-Strep) in non-adherent conditions, in 6-well plates coated with (2-hydroxyethylmethacrylate) (poly-HEMA, P3932, Sigma) in the presence of mDIVI1 or vehicle. After 5 days of culture in a humidified incubator at 37° C, tumorspheres bigger than 50 μm were counted using an eye piece graticule.

MCF7 cells [2] = experiment: PrestoBlue viability assay
Method: Cell viability was measured using the resazurin-based PrestoBlue reagent (A-13261, ThermoFisher Scientific). Briefly, 5 × 10^3 MCF7 cells were seeded into 96-well black plates. When cells were attached mDIVI1 or vehicle were added to the cells. After 2 or 5 days, PrestoBlue reagent was added to the cells and incubated for 2 hours. Plates were finally read using a FluoStar Omega plate reader (BMG Labtech) at an excitation wavelength of 544 and an emission wavelength of 590 nm. Background measurements were subtracted from all values.

MCF7 cells [3] = experiment: CD24/CD44 expression (FACS)
Method: Following mDIVI1 treatment, MCF7 cells grown either in suspension or as monolayers were analysed for their expression of CD24 and CD44. The surviving fraction after 2 days and 5 days of growth was analyzed by FACS. MCF7 cells were either trypsinised or spun down and trypsinised and incubated with CD24 (IOTest CD24-PE, Beckman Coulter) and CD44 (APC mouse anti-human CD44, 559942, BD Pharmingen) for 15 minutes on ice. Cells were then rinsed twice in PBS, spun down, and resuspended with DAPI dye (D1306, Molecular probes) at 3 μM in PBS for 10 minutes. Samples were then analyzed by FACS (Fortessa, BD Bioscence). Only the live cell population, identified using the DAPI staining, was analyzed for CD24/CD44 expression. Data were analyzed using FlowJo software.

Notch signalling = experiment: Luciferase reporter assay MCF7-GFP-Rbp/Jk(luc); conditions: 50 µM, 2 and 5 days
Method: as §1, §2

MCF7 cells [4] = experiment: Bradford assay (protein content)
Method: Extracellular acidification rate (ECAR) and oxygen consumption rate (OCR) were measured in a XF96 Extracellular Flux Analyzer (Seahorse Biosciences). Briefly, 1 × 10^4 MCF7 cells per well were seeded in XF96 plates and incubated with complete medium. When cells were attached, mDIVI1 and vehicle treatments were added. Six replicates were run for each condition. After 48 hours, un-buffered DMEM XF medium supplemented with 2 mM glutamine (pH 7.4) was added to the cells, and placed in a 37° C CO2-free incubator for 1 hour. Ten mM glucose, 1 μM oligomycin and 100 mM 2-deoxyglucose (2-DG) were injected into the media at different time points and ECAR was measured. Likewise, ECAR and OCR were quantified using un-buffered DMEM XF medium supplemented with 2 mM glutamine, 2 mM sodium pyruvate and 10 mM glucose. One μM oligomycin, 0.9 μM FCCP and 1 μM rotenone and antimycin A were injected into the media at different time points and OCR and ECAR were measured.
Cells were finally lysed with 0.1 M NaOH and protein lysate was subsequently stained with Quick Start™ Bradford 1× Dye Reagent (500–0205, BioRad) to normalise results. All parameters were calculated according to manufacturer.

Wnt signalling = experiment: Luciferase reporter assay MCF7-GFP-TCF/LEF(luc); conditions: 50 µM, 2 and 5 days
Method: as §1, §2

MCF7 cells [5] = experiment: Total ROS (CM-H2DCFDA, flow cytometry); conditions: 24, 48 hours or 5 days
Method: For both assays, 2 × 10^5 MCF7 cells were seeded in 35 mm plates. When cells were attached, either vehicle or mDIVI1 were added to the cells for 24, 48 hours or 5 days in triplicate. Reactive oxygen species (ROS) production was measured using CM-H2DCFDA (C6827, Invitrogen). Briefly, cells were incubated for 20 minutes at 37° C with 1 µM CM-H2DCFDA diluted in PBS and then placed in complete media for 20 minutes at 37° C in the dark, to render the dye fluorescent, according to the manufacturer. Mitochondrial superoxide was measured using MitoSOX Red Mitochondrial Superoxide Indicator (M36008, ThermoFisher Scientific). Briefly, cells were incubated for 10 minutes at 37° C in the dark with 5 µM MitoSOX diluted in PBS, according to the manufacturer. ROS signal and MitoSOX signal was quantified as mean fluorescent intensity of the viable cell population in a Fortessa flow cytometer (BD Bioscience). Results were analysed using FlowJo software.

MCF7 cells [6] = experiment: DAPI immunofluorescence staining (binucleated cells); conditions: 50 µM; data not shown

For `COc1cc(-n2c(=S)[nH]c3ccccc3c2=O)c(Cl)cc1Cl` [mDIVI1, 3-(2,4-Dichloro-5-methoxyphenyl) 2,3-dihydro 2-thioxo-4(1H) quinazolinone], the “TGFβ/SMAD pathway luciferase activity” value (TGFβ signalling) was “strikingly caused the inhibition”, the “decrease of MCF7 tumorsphere number” value (MCF7 cells [1]; 10 µM) was 50% and the “decrease of MCF7 tumorsphere number” value (MCF7 cells [1]; 50 µM) was 80%. The “decrease of MCF7 tumorsphere number” value (MCF7 cells [1]; 100 µM) was 95%, the “effect on MCF7 cell viability” value (MCF7 cells [2]; 10 µM, 48 hours) was “did not decrease viability” and the “reduction of MCF7 cell viability” value (MCF7 cells [2]; 10 µM, five days) was 20%. For the same compound, the “reduction of MCF7 cell viability” value (MCF7 cells [2]; 50 µM, 48 hours) was 20%, the “reduction of MCF7 cell viability” value (MCF7 cells [2]; 50 µM, five days) was “over 65%” and the “reduction of MCF7 cell viability” value (MCF7 cells [2]; 100 µM, 48 hours) was 20%. The “reduction of MCF7 cell viability” value (MCF7 cells [2]; 100 µM, five days) was 85%, the “CD24−/CD44+ subpopulation” value (MCF7 cells [3]; 50 µM, in suspension) was “significantly increased” and the “abundance of CD24−/CD44+ subpopulation” value (MCF7 cells [3]; 10 or 50 µM, cells grown as monolayers, vs vehicle) was “not reduced”. The “amount of CD24−/CD44+ cells” value (MCF7 cells [3]; cells in suspension, dose-dependent) was “unexpectedly increased”, the “Notch/Rbp pathway luciferase activity” value (Notch signalling) was “strikingly caused the inhibition” and the “effect on MCF7 protein content” value (MCF7 cells [4]; 10 µM, 48 hours) was “slightly decreased”. The “effect on MCF7 protein content” value (MCF7 cells [4]; 20 µM, 2 days) was “significantly reduced”, the “reduction of MCF7 protein content” value (MCF7 cells [4]; 50 µM, 48 hours) was roughly 40% and the “Wnt/TCF pathway luciferase activity” value (Wnt signalling) was “strikingly caused the inhibition”. For the same compound, the “general oxidative stress levels (total ROS)” value (MCF7 cells [5]) was “did not change” and the “binucleated cells (failure of cytokinesis)” value (MCF7 cells [6]) was “increase in binucleated cells”.
